The numbers were not newly measured in patent US10597401B2, “Methods and intermediates for the preparation of omacetaxine and cephalotaxine derivatives thereof” (ALBANY MOLECULAR RESEARCH, INC., priority 2015, dated 2020), which cites them from elsewhere.

Structures are written as SMILES.

For this series the following is noted: background statement, no test described.

Turning to `COC1=C[C@]23CCCN2CCc2cc4c(cc2[C@@H]3[C@@H]1O)OCO4` [cephalotaxine], the biological activity entry is “biologically inactive”.
